Literature values, collected in patent US3931141A, “Novel heptapeptides having gastrin activity” (Hoechst Aktiengesellschaft, priority 1972, dated 1976).

Test system: stomach
Conditions: The Lancet 1966, page 933

Boc--β--Ala--Trp--Met--Asp--Phe--NH2 [formula IV]
stimulating action (acid production and quantity secreted) compared with other synthetic peptides: strongest stimulating action
